One data set concerns TNF. The data set is described as follows: Cytokine Induction in Human Cells: tumor necrosis factor (TNF) secreted by PBMCs, ELISA. Note: call rule not given here. The data set is classed as cell-based. The conditions noted are these: 18 to 24 hours. The method, boiled down: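 Human donor PBMCs at 1.5-2×10^6 cells/mL in RPMI with 10% FBS were exposed to compound, generally at 0.1 to 100 μM (≤1% DMSO final), for 18 to 24 h at 37 °C. Secreted TNF in supernatant was measured by ELISA and reported as pg/mL.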
(In general: An ELISA detects its analyte on a solid surface through an enzyme-linked reagent.)

Another data set concerns IFN. As to the kind of experiment: Cytokine Induction in Human Cells: interferon (IFN) secreted by PBMCs, A549/encephalomyocarditis bioassay. Note: call rule not given here. The data set is classed as cell-based. The following applies: 18 to 24 hours. The essentials: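 Human PBMCs from healthy donors at 1.5-2×10^6 cells/mL in RPMI with 10% FBS, exposed to compounds (typically 0.1 to 100 μM, ≤1% DMSO) for 18 to 24 h at 37° C. Secreted IFN measured by A549/encephalomyocarditis virus cytopathic-effect bioassay, in alpha reference units/mL against NIH human leukocyte IFN standard.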

SMILES strings stand for the structures.

As usually defined, the melting point is the temperature, or range, at which the solid turns liquid.

`CCCCc1nc2c(N)nc3cccnc3c2n1CCNC(=O)OC(C)(C)C` [Example 90, 1,1-Dimethylethyl N-[2-(4-Amino-2-butyl-1H-imidazo[4,5-c][1,5]naphthyridin-1-yl)ethyl]carbamate] came in with a melting point of 118 to 120 °C. In the data set on TNF (Dose Concentration 0.1 μM), the TNF induction entry is given as “−”. In the data set on TNF (Dose Concentration 1.0 μM), the TNF induction result was “−”. Further, the TNF induction entry in the data set with TNF (Dose Concentration 10.0 μM) is reported as “+”. Besides, the TNF induction result in the data set with TNF (Dose Concentration 100.0 μM) is “+”. In addition, the IFN induction entry in the data set with IFN (Dose Concentration 0.1 μM) is recorded as “±”. Besides, in the data set on IFN (Dose Concentration 1.0 μM), the IFN induction entry is “+”. Moreover, the IFN induction result in the data set on IFN (Dose Concentration 10.0 μM) is “+”. Moreover, in the data set on IFN (Dose Concentration 100.0 μM), the IFN induction result is “+”.

In turn, `CCCCc1nc2c(N)nc3cccnc3c2n1CCN` [Example 91, 2-(4-Amino-2-butyl-1H-imidazo[4,5-c][1,5]naphthyridin-1-yl)ethaneamine] had a melting point of 175 to 176 °C. In the data set on TNF (Dose Concentration 0.1 μM), the TNF induction result is reported as “+”. Besides, the TNF induction result in the data set on TNF (Dose Concentration 1.0 μM) is listed as “+”. For the same compound, the TNF induction result with TNF (Dose Concentration 10.0 μM) is reported as “+”. Further, the TNF induction entry in the data set on TNF (Dose Concentration 100.0 μM) is reported as “+”. Besides, the IFN induction result in the data set with IFN (Dose Concentration 0.1 μM) was “+”. For the same compound, the IFN induction result in the data set on IFN (Dose Concentration 1.0 μM) is recorded as “+”. The IFN induction result in the data set with IFN (Dose Concentration 10.0 μM) was “+”. Also, the IFN induction entry in the data set with IFN (Dose Concentration 100.0 μM) was “+”.

On to `CCCCc1nc2c(N)nc3cccnc3c2n1CCNC(C)=O` [Example 92, N^1-[2-(4-Amino-2-butyl-1H-imidazo[4,5-c][1,5]naphthyridin-1-yl)ethyl]acetamide], for which the melting point lay in the range of 228 to 230 °C. Further, the TNF induction entry with TNF (Dose Concentration 0.1 μM) was “−”. Besides, the TNF induction entry with TNF (Dose Concentration 1.0 μM) was “+”. The TNF induction entry in the data set on TNF (Dose Concentration 10.0 μM) was “+”. Moreover, in the data set with TNF (Dose Concentration 100.0 μM), the TNF induction entry is on record as “+”. The IFN induction entry with IFN (Dose Concentration 0.1 μM) is “±”. The IFN induction entry in the data set with IFN (Dose Concentration 1.0 μM) was “+”. The IFN induction entry in the data set on IFN (Dose Concentration 10.0 μM) was “+”. The IFN induction entry in the data set on IFN (Dose Concentration 100.0 μM) is recorded as “+”.

On to `C/C=C/C(=O)NCCn1c(CCCC)nc2c(N)nc3cccnc3c21` [Example 93, N^1-[2-(4-Amino-2-butyl-1H-imidazo[4,5-c][1,5]naphthyridin-1-yl)ethyl]-(E)-2-butenamide], for which the melting point lay in the range of 198 to 200 °C. The TNF induction result in the data set on TNF (Dose Concentration 0.1 μM) was “−”. Moreover, in the data set on TNF (Dose Concentration 1.0 μM), the TNF induction entry was “+”. Besides, the TNF induction result with TNF (Dose Concentration 10.0 μM) is “+”. In addition, the TNF induction entry in the data set with TNF (Dose Concentration 100.0 μM) is recorded as “+”. For the same compound, the IFN induction result in the data set with IFN (Dose Concentration 0.1 μM) is “−”. For the same compound, the IFN induction result in the data set with IFN (Dose Concentration 1.0 μM) is reported as “+”. The IFN induction entry with IFN (Dose Concentration 10.0 μM) is “+”. The IFN induction entry in the data set on IFN (Dose Concentration 100.0 μM) was “+”.

As to `CCCCc1nc2c(N)nc3cccnc3c2n1CCNC(=O)C1CCCCC1` [Example 94, N^1-[2-(4-Amino-2-butyl-1H-imidazo[4,5-c][1,5]naphthyridin-1-yl)ethyl]-1-cyclohexanecarboxamide], the melting point lay in the range of 188 to 190 °C. Further, in the data set on TNF (Dose Concentration 0.1 μM), the TNF induction entry is “−”. The TNF induction result in the data set on TNF (Dose Concentration 1.0 μM) is reported as “+”. In the data set on TNF (Dose Concentration 10.0 μM), the TNF induction result is given as “+”. Further, in the data set on TNF (Dose Concentration 100.0 μM), the TNF induction entry is “+”. The IFN induction entry with IFN (Dose Concentration 0.1 μM) was “−”. In the data set on IFN (Dose Concentration 1.0 μM), the IFN induction entry was “+”. The IFN induction entry in the data set on IFN (Dose Concentration 10.0 μM) is given as “+”. Besides, the IFN induction result in the data set on IFN (Dose Concentration 100.0 μM) is reported as “+”.

Consider `CCCCc1nc2c(N)nc3cccnc3c2n1CCNC(=O)c1cc(C(C)(C)C)c(O)c(C(C)(C)C)c1` [Example 95, N^1-[2-(4-amino-2-butyl-1H-imidazo[4,5-c][1,5]naphthyridin-1-yl)ethyl]-3,5-di-(1,1-dimethylethyl)-4-hydroxybenzamide], for which the melting point was 248 to 250 °C. Also, the TNF induction result in the data set with TNF (Dose Concentration 0.1 μM) is recorded as “−”. Further, in the data set on TNF (Dose Concentration 1.0 μM), the TNF induction entry is listed as “−”. The TNF induction entry with TNF (Dose Concentration 10.0 μM) is “+”. Besides, the TNF induction result in the data set with TNF (Dose Concentration 100.0 μM) is listed as “+”. Moreover, the IFN induction entry in the data set on IFN (Dose Concentration 0.1 μM) is “±”. The IFN induction result with IFN (Dose Concentration 1.0 μM) is recorded as “+”. In addition, the IFN induction result in the data set with IFN (Dose Concentration 10.0 μM) is on record as “+”. For the same compound, the IFN induction entry with IFN (Dose Concentration 100.0 μM) was “+”.

As to `CCCCc1nc2c(N)nc3cccnc3c2n1CCNC(=O)C1CCC(=O)O1` (centres unmarked) [Example 97, N-[2-(4-Amino-2-butyl-1H-imidazo[4,5-c][1,5]naphthyridin-1-yl)ethyl]-5-oxotetrahydro-2-furancarboxamide], the melting point is 153 to 154 °C. For the same compound, the TNF induction entry with TNF (Dose Concentration 0.1 μM) is on record as “−”. Besides, the TNF induction entry with TNF (Dose Concentration 1.0 μM) was “−”. Besides, the TNF induction entry with TNF (Dose Concentration 10.0 μM) is reported as “+”. In the data set on TNF (Dose Concentration 100.0 μM), the TNF induction entry was “+”. The IFN induction result in the data set on IFN (Dose Concentration 0.1 μM) is “−”. Besides, the IFN induction entry in the data set with IFN (Dose Concentration 1.0 μM) is on record as “−”. Also, in the data set with IFN (Dose Concentration 10.0 μM), the IFN induction result is given as “+”. Further, the IFN induction entry in the data set with IFN (Dose Concentration 100.0 μM) is “+”.

With `CCCCc1nc2c(N)nc3cccnc3c2n1CCNC(=O)Cc1cccc(O)c1` [Example 98, N^1-[2-(4-Amino-2-butyl-1H-imidazo[4,5-c][1,5]naphthyridin-1-yl)ethyl]-2-(3-hydroxyphenyl)acetamide], the melting point fell in the range of 208 to 210 °C. Moreover, the TNF induction entry with TNF (Dose Concentration 0.1 μM) is recorded as “−”. Also, in the data set with TNF (Dose Concentration 1.0 μM), the TNF induction entry is recorded as “+”. Moreover, the TNF induction entry in the data set with TNF (Dose Concentration 10.0 μM) was “+”. In addition, the TNF induction result in the data set on TNF (Dose Concentration 100.0 μM) is recorded as “+”. The IFN induction entry in the data set on IFN (Dose Concentration 0.1 μM) is “−”. For the same compound, the IFN induction entry in the data set with IFN (Dose Concentration 1.0 μM) is given as “+”. Further, in the data set on IFN (Dose Concentration 10.0 μM), the IFN induction entry was “+”. Also, the IFN induction entry with IFN (Dose Concentration 100.0 μM) is recorded as “+”.

Compound `CCCCc1nc2c(N)nc3cccnc3c2n1CCNC(=O)c1cccc(O)n1` [Example 99, N-[2-(4-Amino-2-butyl-1H-imidazo[4,5-c][1,5]naphthyridin-1-yl)ethyl]-6-hydroxy-2-pyridinecarboxamide] had a melting point of 258 to 260 °C. Also, the TNF induction result in the data set with TNF (Dose Concentration 0.1 μM) was “−”. The TNF induction result in the data set with TNF (Dose Concentration 1.0 μM) was “−”. Further, in the data set with TNF (Dose Concentration 10.0 μM), the TNF induction entry was “+”. Further, in the data set with TNF (Dose Concentration 100.0 μM), the TNF induction entry is “+”. Moreover, the IFN induction entry in the data set with IFN (Dose Concentration 0.1 μM) was “−”. The IFN induction result in the data set with IFN (Dose Concentration 1.0 μM) is “−”. Moreover, in the data set on IFN (Dose Concentration 10.0 μM), the IFN induction result is reported as “+”. The IFN induction result with IFN (Dose Concentration 100.0 μM) is given as “+”.

For `CCCCc1nc2c(N)nc3cccnc3c2n1CCNC(=O)CC(C)CCC=C(C)C` (centres unmarked) [Example 100, N^1-[2-(4-Amino-2-butyl-1H-imidazo[4,5-c][1,5]naphthyridin-1-yl)ethyl]-3,7-dimethyl-6-octenamide], the melting point fell in the range of 163 to 164 °C. The TNF induction entry with TNF (Dose Concentration 0.1 μM) is on record as “−”. The TNF induction entry in the data set with TNF (Dose Concentration 1.0 μM) is listed as “−”. Moreover, the TNF induction result with TNF (Dose Concentration 10.0 μM) is “+”. Further, the TNF induction result in the data set on TNF (Dose Concentration 100.0 μM) is recorded as “+”. In the data set with IFN (Dose Concentration 0.1 μM), the IFN induction entry is listed as “−”. Moreover, the IFN induction entry with IFN (Dose Concentration 1.0 μM) is “−”. Further, the IFN induction result with IFN (Dose Concentration 10.0 μM) is reported as “+”. Moreover, the IFN induction result in the data set with IFN (Dose Concentration 100.0 μM) is “+”.

For the compound `CCCCc1nc2c(N)nc3cccnc3c2n1CCNC(=O)C(CC(C)C)NC(=O)OC(C)(C)C` (centres unmarked) [Example 101, 1,1-Dimethylethyl N-[1-({[2-(4-Amino-2-butyl-1H-imidazo[4,5-c][1,5]naphthyridin-1-yl)ethyl]amino}carbonyl)-3-methylbutyl]carbamate], the melting point fell in the range of 184 to 185 °C. Besides, the TNF induction entry in the data set with TNF (Dose Concentration 0.1 μM) was “−”. Moreover, the TNF induction result in the data set with TNF (Dose Concentration 1.0 μM) is “−”. In addition, the TNF induction result with TNF (Dose Concentration 100.0 μM) was “+”. Also, in the data set on IFN (Dose Concentration 0.1 μM), the IFN induction entry was “−”. For the same compound, the IFN induction result in the data set with IFN (Dose Concentration 1.0 μM) is listed as “−”. For the same compound, the IFN induction entry with IFN (Dose Concentration 10.0 μM) is recorded as “+”. In addition, the IFN induction result in the data set on IFN (Dose Concentration 100.0 μM) is listed as “+”.

These data come from patent US7678918B2, “Intermediates for imidazonaphthyridines” (3M Innovative Properties Company, priority 1997, dated 2010).
